{"source": "the supplement of paper PMC11061612", "experiment_in_all_cases": "combination Emax (second highest fraction inhibited in the dose matrix, 72 h); higher = more inhibition; extreme values may be limits of the assay", "key": {"[1]": {"test_system": "OACp4C (Esophageal Adenocarcinoma)", "in_short": "(§1)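 Bliss excess equals the observed combination effect minus the expected value EA + EB − EA·EB, where EA and EB are the effects of each agent alone. Combination Emax is the second-highest inhibition within the matrix. Inhibition was scaled from CellTiter-Glo 2.0 luminescence, with 0 set by vehicle wells and 1 by blank wells, after 72 hours of two-drug dosing of cells plated in 1536-well plates.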"}, "[2]": {"test_system": "NCI-H716 (Colorectal Carcinoma)", "in_short": "as §1"}, "[3]": {"test_system": "LU-165 (Small Cell Lung Carcinoma)", "in_short": "as §1"}, "[4]": {"test_system": "JIMT-1 (Breast Carcinoma)", "in_short": "as §1"}, "[5]": {"test_system": "CA46 (Burkitt's Lymphoma)", "in_short": "as §1"}, "[6]": {"test_system": "22RV1 (Prostate Carcinoma)", "in_short": "as §1"}, "EW-7 (Ewing's Sarcoma)": {"test_system": "EW-7 (Ewing's Sarcoma)", "in_short": "as §1"}, "[7]": {"test_system": "NCI-H1651 (Lung Adenocarcinoma)", "in_short": "as §1"}, "[8]": {"test_system": "MDA-MB-436 (Breast Carcinoma)", "in_short": "as §1"}, "[9]": {"test_system": "LS-411N (Colorectal Carcinoma)", "in_short": "as §1"}, "[10]": {"test_system": "A2780 (Ovarian Carcinoma)", "in_short": "as §1"}, "[11]": {"test_system": "GCT (Other Solid Carcinomas)", "in_short": "as §1"}, "[12]": {"test_system": "JHH-2 (Hepatocellular Carcinoma)", "in_short": "as §1"}, "[13]": {"test_system": "huH-1 (Hepatocellular Carcinoma)", "in_short": "as §1"}, "AU565 (Breast Carcinoma)": {"test_system": "AU565 (Breast Carcinoma)", "in_short": "as §1"}, "[14]": {"test_system": "CAL-27 (Oral Cavity Carcinoma)", "in_short": "as §1"}, "[15]": {"test_system": "KYSE-140 (Esophageal Squamous Cell Carcinoma)", "in_short": "as §1"}, "[16]": {"test_system": "NCI-H1703 (Squamous Cell Lung Carcinoma)", "in_short": "as §1"}, "PEO1 (Ovarian Carcinoma)": {"test_system": "PEO1 (Ovarian Carcinoma)", "in_short": "as §1"}, "[17]": {"test_system": "UACC-812 (Breast Carcinoma)", "in_short": "as §1"}}}
{"smiles": "CC(=O)c1c(C)c2cnc(Nc3ccc(N4CCNCC4)cn3)nc2n(C2CCCC2)c1=O", "note": "[Palbociclib] + Cc1c2c(nn1C)CSCc1cc(n(C)n1)CSc1cc(c3ccccc3c1)OCCCc1c(C(=O)O)n(C)c3c-2c(Cl)ccc13 [AZD5991] (first compound max 10 µM, 7x7, partner max 1 µM)", "values": [{"measurement": "combination Emax", "setting": "[1]", "result": 0.46}, {"measurement": "combination Emax", "setting": "[2]", "result": 0.356}, {"measurement": "combination Emax", "setting": "[3]", "result": 0.167}, {"measurement": "combination Emax", "setting": "[4]", "result": 0.179}, {"measurement": "combination Emax", "setting": "[5]", "result": 0.304}, {"measurement": "combination Emax", "setting": "[6]", "result": 0.503}, {"measurement": "combination Emax", "setting": "EW-7 (Ewing's Sarcoma)", "result": 0.494}, {"measurement": "combination Emax", "setting": "[7]", "result": 0.143}, {"measurement": "combination Emax", "setting": "[8]", "result": 0.229}, {"measurement": "combination Emax", "setting": "[9]", "result": 0.347}, {"measurement": "combination Emax", "setting": "[10]", "result": 0.912}, {"measurement": "combination Emax", "setting": "[11]", "result": 0.395}, {"measurement": "combination Emax", "setting": "[12]", "result": 0.368}, {"measurement": "combination Emax", "setting": "[13]", "result": 0.236}, {"measurement": "combination Emax", "setting": "AU565 (Breast Carcinoma)", "result": 0.998}, {"measurement": "combination Emax", "setting": "[14]", "result": 0.914}, {"measurement": "combination Emax", "setting": "[15]", "result": 0.301}, {"measurement": "combination Emax", "setting": "[16]", "result": 0.815}, {"measurement": "combination Emax", "setting": "PEO1 (Ovarian Carcinoma)", "result": 0.329}]}
{"smiles": "CC(=O)c1c(C)c2cnc(Nc3ccc(N4CCNCC4)cn3)nc2n(C2CCCC2)c1=O", "note": "[Palbociclib] + Cn1cnc2c(F)c(Nc3ccc(Br)cc3Cl)c(C(=O)NOCCO)cc21 [Selumetinib] (first compound max 10 µM, 7x7, partner max 10 µM)", "values": [{"measurement": "combination Emax", "setting": "[1]", "result": 0.557}, {"measurement": "combination Emax", "setting": "[2]", "result": 0.539}, {"measurement": "combination Emax", "setting": "[3]", "result": 0.0618}, {"measurement": "combination Emax", "setting": "[4]", "result": 0.0628}, {"measurement": "combination Emax", "setting": "[5]", "result": 0.345}, {"measurement": "combination Emax", "setting": "[6]", "result": 0.463}, {"measurement": "combination Emax", "setting": "EW-7 (Ewing's Sarcoma)", "result": 0.669}, {"measurement": "combination Emax", "setting": "[7]", "result": 0.0478}, {"measurement": "combination Emax", "setting": "[8]", "result": 0.224}, {"measurement": "combination Emax", "setting": "[9]", "result": 0.715}, {"measurement": "combination Emax", "setting": "[10]", "result": 0.825}, {"measurement": "combination Emax", "setting": "[11]", "result": 0.405}, {"measurement": "combination Emax", "setting": "[12]", "result": 0.463}, {"measurement": "combination Emax", "setting": "[13]", "result": 0.167}, {"measurement": "combination Emax", "setting": "AU565 (Breast Carcinoma)", "result": 0.277}, {"measurement": "combination Emax", "setting": "[14]", "result": 0.627}, {"measurement": "combination Emax", "setting": "[15]", "result": 0.188}, {"measurement": "combination Emax", "setting": "[16]", "result": 0.584}, {"measurement": "combination Emax", "setting": "PEO1 (Ovarian Carcinoma)", "result": 0.295}]}
{"smiles": "CCc1c2c(nc3ccc(O)cc13)-c1cc3c(c(=O)n1C2)COC(=O)[C@]3(O)CC", "note": "[SN-38] + O=C(c1cc(Cc2n[nH]c(=O)c3ccccc23)ccc1F)N1CCN(C(=O)C2CC2)CC1 [Olaparib] (first compound max 0.3 µM, 7x7, partner max 10 µM)", "values": [{"measurement": "combination Emax", "setting": "[1]", "result": 0.637}, {"measurement": "combination Emax", "setting": "[3]", "result": 0.478}, {"measurement": "combination Emax", "setting": "[4]", "result": 0.267}, {"measurement": "combination Emax", "setting": "[6]", "result": 0.697}, {"measurement": "combination Emax", "setting": "EW-7 (Ewing's Sarcoma)", "result": 0.908}, {"measurement": "combination Emax", "setting": "[7]", "result": 0.902}, {"measurement": "combination Emax", "setting": "[8]", "result": 0.546}, {"measurement": "combination Emax", "setting": "[9]", "result": 0.304}, {"measurement": "combination Emax", "setting": "[17]", "result": 0.504}, {"measurement": "combination Emax", "setting": "[10]", "result": 0.777}, {"measurement": "combination Emax", "setting": "[11]", "result": 0.753}, {"measurement": "combination Emax", "setting": "[12]", "result": 0.618}, {"measurement": "combination Emax", "setting": "[13]", "result": 0.794}, {"measurement": "combination Emax", "setting": "AU565 (Breast Carcinoma)", "result": 0.891}, {"measurement": "combination Emax", "setting": "[16]", "result": 0.882}, {"measurement": "combination Emax", "setting": "PEO1 (Ovarian Carcinoma)", "result": 0.725}]}
